Results published in the supplement of paper PMC6045584.
± gives the standard deviation of the averaged measurements.

What was measured:
CANERTINIB = compound: C=CC(=O)Nc1cc2c(Nc3ccc(F)c(Cl)c3)ncnc2cc1OCCCN1CCOCC1 [CANERTINIB]; test: surviving fraction relative to DMSO-only wells; higher = less growth inhibition; conditions: exposure time: 5 days
In short: (§1)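 After seeding at 250–500 cells per well in 384-well plates and a 24-hour wait, log-phase tumour cell lines were exposed without interruption for five days to inhibitors at 0.5, 1, 5, 10, 50, 100, 500 and 1000 nM. CellTiter-Glo luminescence was recorded after 10 minutes at room temperature. Viability is reported as surviving fraction, the luminescence normalised to the median of DMSO-only wells.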

[1] = compound: Cn1cc(C2=Nc3cc(NC(=O)C(N)C4CCCCC4)cc4c3C2=CNNC4=O)cn1; test: as above; conditions: exposure time: 5 days
In short: as §1

Test System | surviving fraction (CANERTINIB; 0.5 nM) | surviving fraction (CANERTINIB; 1 nM) | surviving fraction (CANERTINIB; 5 nM) | surviving fraction (CANERTINIB; 10 nM) | surviving fraction (CANERTINIB; 50 nM) | surviving fraction (CANERTINIB; 100 nM) | surviving fraction (CANERTINIB; 500 nM) | surviving fraction (CANERTINIB; 1000 nM) | surviving fraction ([1]; 0.5 nM) | surviving fraction ([1]; 1 nM) | surviving fraction ([1]; 5 nM) | surviving fraction ([1]; 10 nM) | surviving fraction ([1]; 50 nM) | surviving fraction ([1]; 100 nM) | surviving fraction ([1]; 500 nM) | surviving fraction ([1]; 1000 nM)
VCAP PROSTATE | 0.902 ± 0.036 | 0.904 ± 0.026 | 0.954 ± 0.046 | 0.935 ± 0.12 | 1.19 ± 0.083 | 1.17 ± 0.1 | 0.859 ± 0.09 | 0.737 ± 0.037 | 1.04 ± 0.058 | 1.13 ± 0.12 | 1.14 ± 0.033 | 1.16 ± 0.081 | 0.969 ± 0.051 | 0.97 ± 0.032 | 0.254 ± 0.059 | 0.113 ± 0.0095
OSHN BONE | 0.898 ± 0.036 | 0.904 ± 0.028 | 0.932 ± 0.035 | 0.91 ± 0.019 | 1.03 ± 0.043 | 1.03 ± 0.016 | 1.02 ± 0.0035 | 1.03 ± 0.028 | 1.05 ± 0.044 | 1.077 ± 0.001 | 1.05 ± 0.018 | 1.062 ± 0.0075 | 0.959 ± 0.021 | 0.924 ± 0.017 | 0.0477 ± 0.0023 | 0.0277 ± 0.00058
NCIH441 LUNG | 0.951 ± 0.059 | 1.02 ± 0.02 | 1.01 ± 0.029 | 1.03 ± 0.07 | 0.918 ± 0.1 | 0.923 ± 0.0095 | 0.736 ± 0.098 | 0.635 ± 0.086 | 0.975 ± 0.037 | 1.01 ± 0.018 | 1.01 ± 0.05 | 1.06 ± 0.084 | 1.04 ± 0.024 | 0.895 ± 0.078 | 0.401 ± 0.031 | 0.319 ± 0.0068
SNU475 LIVER | 0.917 ± 0.0099 | 0.8847 ± 0.0057 | 0.88 ± 0.051 | 0.85 ± 0.041 | 0.9373 ± 0.0055 | 0.908 ± 0.024 | 0.869 ± 0.022 | 0.808 ± 0.058 | 0.965 ± 0.028 | 0.967 ± 0.053 | 0.987 ± 0.013 | 1.01 ± 0.02 | 0.892 ± 0.038 | 0.898 ± 0.046 | 0.731 ± 0.034 | 0.514 ± 0.082
SUM44 BREAST | 0.778 ± 0.15 | 0.719 ± 0.22 | 0.797 ± 0.16 | 0.796 ± 0.18 | 1.05 ± 0.063 | 0.948 ± 0.16 | 0.84 ± 0.14 | 0.778 ± 0.12 | 0.896 ± 0.016 | 0.936 ± 0.059 | 0.905 ± 0.072 | 0.594 ± 0.03 | 0.349 ± 0.028 | 0.239 ± 0.0068 | 0.232 ± 0.017 | 0.301 ± 0.015
HMT3552 BREAST | 0.832 ± 0.042 | 0.838 ± 0.058 | 0.804 ± 0.014 | 0.774 ± 0.029 | 0.828 ± 0.079 | 0.8597 ± 0.0078 | 0.696 ± 0.037 | 0.604 ± 0.015 | 0.92 | 1.07 | 1.02 | 0.936 | 0.999 | 1.03 | 0.176 | 0.097
NY BONE | 0.892 ± 0.042 | 0.905 ± 0.031 | 0.998 ± 0.027 | 0.956 ± 0.028 | 0.965 ± 0.052 | 0.955 ± 0.01 | 0.825 ± 0.034 | 0.69 ± 0.009 | 1 ± 0.015 | 0.984 ± 0.0061 | 1.03 ± 0.024 | 0.95 ± 0.042 | 0.458 ± 0.014 | 0.182 ± 0.014 | 0.0577 ± 0.0055 | 0.0377 ± 0.0055
NOS1 BONE | 0.909 ± 0.16 | 0.939 ± 0.12 | 0.957 ± 0.094 | 1.04 ± 0.14 | 1.04 ± 0.11 | 1.1 ± 0.1 | 0.585 ± 0.052 | 0.333 ± 0.02 | 1 ± 0.16 | 0.948 ± 0.081 | 1.11 ± 0.1 | 1.05 ± 0.1 | 0.813 ± 0.075 | 0.872 ± 0.064 | 0.339 ± 0.009 | 0.195 ± 0.013
MDAMB361 BREAST | 0.704 ± 0.05 | 0.718 ± 0.16 | 0.642 ± 0.011 | 0.674 ± 0.078 | 0.74 ± 0.064 | 0.832 ± 0.092 | 0.691 ± 0.067 | 0.682 ± 0.053 | 0.751 ± 0.014 | 0.706 ± 0.065 | 0.71 ± 0.023 | 0.656 ± 0.061 | 0.456 ± 0.028 | 0.399 ± 0.032 | 0.43 ± 0.013 | 0.49 ± 0.013
